Assay results from patent US11000491B2, “Amino-aryl-benzamide compounds and methods of use thereof” (HEPANOVA, INC., priority 2017, dated 2021).
Read-outs that look alike come from different tables or passages of the source.

Tests used:
Type in all cases: cell-based
Huh7 cells = assay: LD content in Huh7 cells pre-treated with insulin, Oil-Red-O staining, absorbance OD 540 nm; conditions: procedure of Example 3, read-out: LD content inhibition (EC50)
Method in brief: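 Huh7 cells, mock-treated or pre-treated with 1 mM insulin, were then exposed to compound at the indicated amounts. Lipid droplets stained with Oil Red O and quantified by absorbance at OD 540 nm.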

SREBP-1 = SREBP-1 expression in cultured primary human hepatocytes; conditions: procedure of Example 6, read-out: SREBP-1 mRNA inhibition (EC50)
Method in brief: (§1)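 Primary human hepatocytes in culture exposed to a range of HPN-01 derivative concentrations; SREBP-1 and SREBP-2 mRNA expression then measured to assess inhibition.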

SREBP-2 = SREBP-2 expression in cultured primary human hepatocytes; conditions: procedure of Example 6, read-out: SREBP-2 mRNA inhibition (EC50)
Method in brief: as §1

[1] = Homo sapiens, Huh-7, Huh7 cells

Row | EC50 (Huh7 cells; [1]) [nM] | EC50 (Huh7 cells; Huh7 cells) [nM] | Compound | EC50 (SREBP-1; Homo sapiens, Hepatocyte) [nM] | EC50 (SREBP-2; Homo sapiens, Hepatocyte) [nM] | EC50 (SREBP-1) [nM] | EC50 (SREBP-2) [nM]
1 | 2390 |  | Nc1c(C(=O)NCc2cccnc2)cc(-c2ccc(Cl)cc2)cc1-c1ccc(S(N)(=O)=O)cc1 [HPN-01630, 4′-amino-4-chloro-N-(pyridin-3-ylmethyl)-4″-sulfamoyl-[1,1′:3′,1″-terphenyl]-5′-carboxamide] | 3570 | 3870 |  | 
2 | 1070 |  | Nc1c(C(=O)Nc2ccc(F)c(F)c2)cc(-c2ccc(Br)cc2)cc1-c1ccc(S(N)(=O)=O)cc1 [HPN-01616, 4′-amino-4-bromo-N-(3,4-difluorophenyl)-4″-sulfamoyl-[1,1′:3′,1″-terphenyl]-5′-carboxamide] | 3570 | 6790 |  | 
3 | 10500 |  | NC(=O)c1cc(-c2c[nH]c(Cl)c2)cc(-c2ccc(S(N)(=O)=O)cc2)c1N [HPN-01310, 2-amino-5-(5-chloro-1H-pyrrol-3-yl)-4′-sulfamoyl-[1,1′-biphenyl]-3-carboxamide] | 13000 | 23900 |  | 
4 | 1430 |  | Nc1c(C(=O)Nc2ccc(O)c(O)c2)cc(-c2ccc(Br)cc2)cc1-c1ccc(S(N)(=O)=O)cc1 [HPN-01618, 4′-amino-4-bromo-N-(3,4-dihydroxyphenyl)-4″-sulfamoyl-[1,1′:3′,1″-terphenyl]-5′-carboxamide] | 3570 | 6370 |  | 
5 |  | 1110 | 4′-(2-aminoacetamido)-4-chloro-4″-ureido-[1, 1′:3′,1″-terphenyl]-5′-carboxamide [HPN-01518] |  |  | 2920 | 4860
6 | 2510 |  | NC(=O)Nc1ccc(-c2cc(-c3ccc(Cl)cc3)cc(C(N)=O)c2NC(=O)CCO)cc1 [HPN-01520, 4-chloro-4′-(3-hydroxypropanamido)-4″-ureido-[1,1′:3′,1″-terphenyl]-5′-carboxamide] | 3010 | 4450 |  | 
7 | 1110 |  | NC(=O)c1cc(-c2ccc(Cl)cc2)cc(-c2ccc(S(N)(=O)=O)cc2)c1NCCc1ccccc1 [HPN-01534, 4-chloro-4′-(phenethylamino)-4″-sulfamoyl-[1,1′:3′,1″-terphenyl]-5′-carboxamide] | 2920 | 6790 |  | 
8 | 830 |  | Cc1ccc(NC(=O)/C=C/c2cc(C(N)=O)c(N)c(-c3ccc(S(N)(=O)=O)cc3)c2)cc1 [HPN-01126, (E)-2-amino-5-(3-oxo-3-(p-tolylamino)prop-1-en-1-yl)-4′-sulfamoyl-[1,1′-biphenyl]-3-carboxamide] | 2430 | 4540 |  | 
9 | 980 |  | NC(=O)c1cc(-c2ccc(Cl)cc2)cc(-c2ccc(NC(N)=S)cc2)c1N [HPN-01418, 4′-amino-4-chloro-4″-thioureido-[1,1′:3′,1″-terphenyl]-5′-carboxamide] | 2690 | 2450 |  | 
10 |  | 590 | 4′-acetamido-4-chloro-4″-ureido-[1,1′:3′,1″-terphenyl]-5′-carboxamide [HPN-01505] |  |  | 1360 | 2410
11 | 5920 |  | NC(=O)c1cc(Oc2cccc(Cl)c2)cc(-c2ccc(S(N)(=O)=O)cc2)c1N [HPN-01316, 2-amino-5-(3-chlorophenoxy)-4′-sulfamoyl-[1,1′-biphenyl]-3-carboxamide] | 8020 | 11200 |  | 
12 | 1370 |  | NC(=O)c1cc(/C=C/c2ccc(Br)cc2)cc(-c2ccc(S(N)(=O)=O)cc2)c1N [HPN-01109, (E)-2-amino-5-(4-bromostyryl)-4′-sulfamoyl-[1,1′-biphenyl]-3-carboxamide] | 2710 | 4460 |  | 
13 | 640 |  | NC(=O)c1cc(-c2ccc(Br)cc2)cc(Nc2ccc(S(N)(=O)=O)cc2)c1N [HPN-01404, 4-amino-4′-bromo-5-((4-sulfamoylphenyl)amino)-[1,1′-biphenyl]-3-carboxamide] | 1970 | 3390 |  | 
14 | 520 |  | NC(=O)c1cc(C#Cc2ccc(Cl)cc2)cc(-c2ccc(S(N)(=O)=O)cc2)c1N [HPN-01205, 2-amino-5-((4-chlorophenyl)ethynyl)-4′-sulfamoyl-[1,1′-biphenyl]-3-carboxamide] | 1750 | 2090 |  | 
15 | 330 |  | NC(=O)c1cc(/C=C/C(=O)O)cc(-c2ccc(S(N)(=O)=O)cc2)c1N [HPN-01113, (E)-3-(6-amino-5-carbamoyl-4′-sulfamoyl-[1,1′-biphenyl]-3-yl)acrylic acid] | 690 | 970 |  | 
16 |  | 1300 | 4-(4′-amino-4-bromo-4″-sulfamoyl-[1,1′:3′,1″-terphenyl]-5′-yl)piperazine-1-carboxamide [HPN-01624] |  |  | 7540 | 13500
17 | 820 |  | Nc1c(C(=O)Nc2cccc(F)c2)cc(-c2ccc(Br)cc2)cc1-c1ccc(S(N)(=O)=O)cc1 [HPN-01614, 4′-amino-4-bromo-N-(3-fluorophenyl)-4″-sulfamoyl-[1,1′:3′,1″-terphenyl]-5′-carboxamide] | 5650 | 8600 |  | 
18 | 640 |  | Nc1c(C(=O)Nc2ccccc2)cc(-c2ccc(Br)cc2)cc1-c1ccc(S(N)(=O)=O)cc1 [HPN-01612, 4′-amino-4-bromo-N-phenyl-4″-sulfamoyl-[1,1′:3′,1″-terphenyl]-5′-carboxamide] | 3110 | 5480 |  | 
19 | 1030 |  | CCOC(=O)c1ccc(-c2cc(C(N)=O)c(N)c(-c3ccc(S(N)(=O)=O)cc3)c2)cc1 [HPN-01302, ethyl 4′-amino-5′-carbamoyl-4″-sulfamoyl-[1,1′:3′,1″-terphenyl]-4-carboxylate] | 3160 | 4520 |  | 
20 | 580 |  | NC(=O)c1cc(-c2ccc(Cl)cc2)cc(Oc2cccc(-c3nn[nH]n3)c2)c1N [HPN-01410, 5-(3-(2H-tetrazol-5-yl)phenoxy)-4-amino-4′-chloro-[1,1′-biphenyl]-3-carboxamide] | 2090 | 4080 |  | 
21 | 2140 |  | NC(=O)c1cc(/C=C/C(=O)Nc2ccc(C(=O)O)cc2)cc(-c2ccc(S(N)(=O)=O)cc2)c1N [HPN-01121, (E)-4-(3-(6-amino-5-carbamoyl-4′-sulfamoyl-[1,1′-biphenyl]-3-yl)acrylamido)benzoic acid] | 6590 | 8040 |  | 
22 | 5360 |  | COc1cccc(NC(=O)c2cc(-c3ccc(Br)cc3)cc(-c3ccc(S(N)(=O)=O)cc3)c2N)c1 [HPN-01620, 4′-amino-4-bromo-N-(3-methoxyphenyl)-4″-sulfamoyl-[1,1′:3′,1″-terphenyl]-5′-carboxamide] | 5760 | 9220 |  | 
23 | 600 |  | NC(=O)c1cc(-c2ccc(Cl)cc2)cc(Nc2ccc(S(N)(=O)=O)cc2)c1N [HPN-01402, 4-amino-4′-chloro-5-((4-sulfamoylphenyl)amino)-[1,1′-biphenyl]-3-carboxamide] | 1180 | 2500 |  | 
24 | 1030 |  | CC(=O)OCC#Cc1cc(C(N)=O)c(N)c(-c2ccc(S(N)(=O)=O)cc2)c1 [HPN-01223, 3-(6-amino-5-carbamoyl-4′-sulfamoyl-[1,1′-biphenyl]-3-yl)prop-2-yn-1-yl acetate] | 2640 | 4200 |  | 

Row | Compound | EC50 (Huh7 cells; [1]) [nM] | EC50 (Huh7 cells; Huh7 cells) [nM] | EC50 (SREBP-1; Homo sapiens, Hepatocyte) [nM] | EC50 (SREBP-2; Homo sapiens, Hepatocyte) [nM] | EC50 (SREBP-1) [nM] | EC50 (SREBP-2) [nM]
25 | 2-amino-5-((3-chlorophenyl)ethynyl)-4′-sulfamoyl-[1,1′-biphenyl]-3-carboxamide [HPN-01206] |  | 900 |  |  | 1680 | 1070
